Test results reported in ChEMBL document CHEMBL5465560, “Selectivity Literature for EUbOPEN Chemogenomic Library” (2024).
Values belong to the molecule of their own block, whether it stands above or below them.

How the values were obtained:
[1] = system: Mast/stem cell growth factor receptor Kit (Homo sapiens), P10721 [V559D,V654A]; settings: at 10 µM
[2] = biological target: T1, 5'-AMP-activated protein kinase catalytic subunit alpha-1 (Homo sapiens, UniProt Q13131); assay: Selectivity interaction (ActivX KiNativ screen (kinase selectivity in THP-1 cell lysates)) EUB0000639a PRKAA1; assay type: subcellular; settings: lysate, at 0.01 µM
T1 sequence (Q13131 whole entry, looked up): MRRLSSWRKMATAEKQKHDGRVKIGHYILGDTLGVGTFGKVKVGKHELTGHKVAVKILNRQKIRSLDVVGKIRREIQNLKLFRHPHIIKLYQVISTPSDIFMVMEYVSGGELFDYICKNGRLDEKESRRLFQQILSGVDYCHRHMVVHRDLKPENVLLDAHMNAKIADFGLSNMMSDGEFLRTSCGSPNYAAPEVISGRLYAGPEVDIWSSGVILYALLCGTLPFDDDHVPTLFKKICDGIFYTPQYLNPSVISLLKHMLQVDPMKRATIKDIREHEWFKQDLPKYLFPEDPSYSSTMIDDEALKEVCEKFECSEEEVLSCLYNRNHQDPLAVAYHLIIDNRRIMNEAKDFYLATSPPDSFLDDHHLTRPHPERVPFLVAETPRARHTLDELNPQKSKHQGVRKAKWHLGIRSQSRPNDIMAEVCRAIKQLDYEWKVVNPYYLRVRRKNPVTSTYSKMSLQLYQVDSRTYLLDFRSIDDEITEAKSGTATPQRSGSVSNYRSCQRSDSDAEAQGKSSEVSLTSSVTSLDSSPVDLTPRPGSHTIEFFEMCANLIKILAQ

Focal adhesion kinase 1 = Focal adhesion kinase 1 (Homo sapiens, UniProt Q05397); assay: Selectivity interaction (ActivX KiNativ screen (kinase selectivity in THP-1 cell lysates)) EUB0000639a PTK2; assay type: subcellular; settings: lysate, at 1 µM
[3] = biological target: Tyrosine-protein kinase HCK (Homo sapiens) (UniProt P08631); assay: Selectivity interaction (ActivX KiNativ screen (kinase selectivity in THP-1 cell lysates)) EUB0000639a HCK; assay type: subcellular; settings: lysate, at 0.04 µM
[4] = biological target: T2, Histone-lysine N-methyltransferase SUV39H1 (Homo sapiens) (UniProt O43463); settings: at 1 µM
T2 sequence (whole entry): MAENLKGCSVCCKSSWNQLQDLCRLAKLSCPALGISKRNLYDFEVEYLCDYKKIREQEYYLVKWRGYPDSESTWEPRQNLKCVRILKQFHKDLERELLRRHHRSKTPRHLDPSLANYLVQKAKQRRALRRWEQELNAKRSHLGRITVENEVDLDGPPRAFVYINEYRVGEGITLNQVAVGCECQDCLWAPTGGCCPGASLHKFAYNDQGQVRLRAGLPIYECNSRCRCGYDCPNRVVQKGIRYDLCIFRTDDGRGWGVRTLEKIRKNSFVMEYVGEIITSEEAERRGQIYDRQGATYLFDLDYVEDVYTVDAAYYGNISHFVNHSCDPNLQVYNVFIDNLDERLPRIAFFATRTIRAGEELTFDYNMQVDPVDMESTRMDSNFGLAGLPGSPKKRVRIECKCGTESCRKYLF

[5] = biological target: Protein polybromo-1 (Homo sapiens) (UniProt Q86U86); assay: Selectivity interaction (Bromodomain panel (DSF asssay)) EUB0000270b PBRM1
[6] = biological target: Beta-2 adrenergic receptor (Homo sapiens, UniProt P07550); assay: Selectivity interaction (Beta 2 adrenergic receptor assay, human recombinant ) EUB0000877a ADRB2
[7] = biological target: Receptor tyrosine-protein kinase erbB-2 (Homo sapiens, UniProt P04626); assay: Selectivity interaction (Kinase panel (Z-LYTE Assay)) EUB0001632a ERBB2; settings: at 10 µM
[8] = system: Receptor-type tyrosine-protein kinase FLT3 (Homo sapiens), P36888 [UNDEFINED MUTATION]; settings: at 10 µM
[9] = biological target: Histone-lysine N-methyltransferase 2A (Homo sapiens) (UniProt Q03164); assay: Selectivity interaction (Methyltransferase screen (radiometric assays, panel of 8 PRMTs, 21 protein lysine methyltransferases, 3 DNA methyltransferases, and one RNA methyltransferase)) EUB0000271b MLL
Chain of Histone-lysine N-methyltransferase 2A (Homo sapiens) (Q03164 1-2718 limits assumed): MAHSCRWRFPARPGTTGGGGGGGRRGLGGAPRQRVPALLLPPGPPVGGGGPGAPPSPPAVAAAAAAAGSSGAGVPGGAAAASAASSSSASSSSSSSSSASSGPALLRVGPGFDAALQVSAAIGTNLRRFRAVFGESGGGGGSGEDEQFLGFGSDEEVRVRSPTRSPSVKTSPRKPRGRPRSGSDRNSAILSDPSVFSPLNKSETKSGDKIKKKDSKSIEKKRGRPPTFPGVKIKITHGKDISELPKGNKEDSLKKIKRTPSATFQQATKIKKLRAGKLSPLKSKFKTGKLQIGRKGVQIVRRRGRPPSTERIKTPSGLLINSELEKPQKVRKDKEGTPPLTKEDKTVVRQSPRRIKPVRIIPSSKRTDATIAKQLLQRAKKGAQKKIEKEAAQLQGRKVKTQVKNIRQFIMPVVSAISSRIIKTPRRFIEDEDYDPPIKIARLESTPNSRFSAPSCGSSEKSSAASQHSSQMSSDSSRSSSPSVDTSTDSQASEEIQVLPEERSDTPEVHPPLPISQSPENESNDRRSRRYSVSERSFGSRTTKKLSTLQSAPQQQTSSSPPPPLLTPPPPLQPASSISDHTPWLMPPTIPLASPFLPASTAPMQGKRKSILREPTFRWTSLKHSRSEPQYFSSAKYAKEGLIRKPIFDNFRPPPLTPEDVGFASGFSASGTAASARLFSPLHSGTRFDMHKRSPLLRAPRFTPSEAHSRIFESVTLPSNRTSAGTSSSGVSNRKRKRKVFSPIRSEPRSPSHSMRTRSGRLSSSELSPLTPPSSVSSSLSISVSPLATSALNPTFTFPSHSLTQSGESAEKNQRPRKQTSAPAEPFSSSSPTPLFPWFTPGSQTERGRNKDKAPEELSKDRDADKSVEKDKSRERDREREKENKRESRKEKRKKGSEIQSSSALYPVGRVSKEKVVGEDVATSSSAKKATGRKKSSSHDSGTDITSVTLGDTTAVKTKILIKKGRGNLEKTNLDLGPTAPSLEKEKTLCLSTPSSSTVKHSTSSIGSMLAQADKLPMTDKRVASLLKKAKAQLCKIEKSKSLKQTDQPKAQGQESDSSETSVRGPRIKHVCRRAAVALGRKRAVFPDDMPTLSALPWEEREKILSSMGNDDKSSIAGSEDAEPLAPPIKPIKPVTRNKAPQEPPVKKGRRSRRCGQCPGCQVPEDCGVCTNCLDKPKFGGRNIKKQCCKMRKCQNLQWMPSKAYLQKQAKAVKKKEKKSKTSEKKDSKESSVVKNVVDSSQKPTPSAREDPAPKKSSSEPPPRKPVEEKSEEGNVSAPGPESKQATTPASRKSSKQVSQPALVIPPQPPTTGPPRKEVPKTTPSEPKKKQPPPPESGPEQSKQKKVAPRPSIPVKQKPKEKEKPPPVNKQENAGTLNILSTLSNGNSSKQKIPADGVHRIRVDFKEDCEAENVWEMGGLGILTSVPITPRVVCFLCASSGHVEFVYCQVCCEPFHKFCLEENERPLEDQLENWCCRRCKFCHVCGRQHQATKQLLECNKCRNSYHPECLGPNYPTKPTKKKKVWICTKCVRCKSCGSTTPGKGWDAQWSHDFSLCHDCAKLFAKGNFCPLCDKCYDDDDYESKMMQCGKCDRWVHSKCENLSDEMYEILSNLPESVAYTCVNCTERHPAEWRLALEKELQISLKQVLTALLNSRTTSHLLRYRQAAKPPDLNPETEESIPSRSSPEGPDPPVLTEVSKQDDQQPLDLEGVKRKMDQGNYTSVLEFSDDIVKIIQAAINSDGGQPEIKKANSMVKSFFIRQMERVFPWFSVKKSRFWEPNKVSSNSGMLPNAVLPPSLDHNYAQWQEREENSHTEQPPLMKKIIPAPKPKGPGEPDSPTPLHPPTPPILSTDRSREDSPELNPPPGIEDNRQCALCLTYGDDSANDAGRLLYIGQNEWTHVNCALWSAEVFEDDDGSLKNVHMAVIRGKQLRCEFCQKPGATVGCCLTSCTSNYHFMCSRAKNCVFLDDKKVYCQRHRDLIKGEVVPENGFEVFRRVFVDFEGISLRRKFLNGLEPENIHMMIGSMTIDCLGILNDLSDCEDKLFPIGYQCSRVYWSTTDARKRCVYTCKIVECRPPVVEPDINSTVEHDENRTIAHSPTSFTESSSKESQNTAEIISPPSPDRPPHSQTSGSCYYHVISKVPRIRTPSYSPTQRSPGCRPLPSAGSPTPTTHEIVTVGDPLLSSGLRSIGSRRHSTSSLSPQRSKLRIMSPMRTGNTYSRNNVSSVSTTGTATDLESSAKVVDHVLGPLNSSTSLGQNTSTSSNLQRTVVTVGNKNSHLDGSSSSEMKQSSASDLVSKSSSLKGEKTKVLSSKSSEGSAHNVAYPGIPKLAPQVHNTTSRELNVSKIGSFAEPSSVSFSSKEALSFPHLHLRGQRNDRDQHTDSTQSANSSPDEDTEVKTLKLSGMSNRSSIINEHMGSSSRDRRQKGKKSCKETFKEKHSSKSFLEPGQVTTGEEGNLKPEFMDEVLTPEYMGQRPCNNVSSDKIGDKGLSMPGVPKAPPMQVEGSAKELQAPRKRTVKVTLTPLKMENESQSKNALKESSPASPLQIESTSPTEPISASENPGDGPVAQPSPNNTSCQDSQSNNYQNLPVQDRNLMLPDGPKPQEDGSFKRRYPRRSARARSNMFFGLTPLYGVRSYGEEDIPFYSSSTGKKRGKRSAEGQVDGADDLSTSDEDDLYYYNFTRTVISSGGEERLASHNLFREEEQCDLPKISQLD
Chain of Histone-lysine N-methyltransferase 2A (Homo sapiens) (Q03164 2719-3969 limits assumed): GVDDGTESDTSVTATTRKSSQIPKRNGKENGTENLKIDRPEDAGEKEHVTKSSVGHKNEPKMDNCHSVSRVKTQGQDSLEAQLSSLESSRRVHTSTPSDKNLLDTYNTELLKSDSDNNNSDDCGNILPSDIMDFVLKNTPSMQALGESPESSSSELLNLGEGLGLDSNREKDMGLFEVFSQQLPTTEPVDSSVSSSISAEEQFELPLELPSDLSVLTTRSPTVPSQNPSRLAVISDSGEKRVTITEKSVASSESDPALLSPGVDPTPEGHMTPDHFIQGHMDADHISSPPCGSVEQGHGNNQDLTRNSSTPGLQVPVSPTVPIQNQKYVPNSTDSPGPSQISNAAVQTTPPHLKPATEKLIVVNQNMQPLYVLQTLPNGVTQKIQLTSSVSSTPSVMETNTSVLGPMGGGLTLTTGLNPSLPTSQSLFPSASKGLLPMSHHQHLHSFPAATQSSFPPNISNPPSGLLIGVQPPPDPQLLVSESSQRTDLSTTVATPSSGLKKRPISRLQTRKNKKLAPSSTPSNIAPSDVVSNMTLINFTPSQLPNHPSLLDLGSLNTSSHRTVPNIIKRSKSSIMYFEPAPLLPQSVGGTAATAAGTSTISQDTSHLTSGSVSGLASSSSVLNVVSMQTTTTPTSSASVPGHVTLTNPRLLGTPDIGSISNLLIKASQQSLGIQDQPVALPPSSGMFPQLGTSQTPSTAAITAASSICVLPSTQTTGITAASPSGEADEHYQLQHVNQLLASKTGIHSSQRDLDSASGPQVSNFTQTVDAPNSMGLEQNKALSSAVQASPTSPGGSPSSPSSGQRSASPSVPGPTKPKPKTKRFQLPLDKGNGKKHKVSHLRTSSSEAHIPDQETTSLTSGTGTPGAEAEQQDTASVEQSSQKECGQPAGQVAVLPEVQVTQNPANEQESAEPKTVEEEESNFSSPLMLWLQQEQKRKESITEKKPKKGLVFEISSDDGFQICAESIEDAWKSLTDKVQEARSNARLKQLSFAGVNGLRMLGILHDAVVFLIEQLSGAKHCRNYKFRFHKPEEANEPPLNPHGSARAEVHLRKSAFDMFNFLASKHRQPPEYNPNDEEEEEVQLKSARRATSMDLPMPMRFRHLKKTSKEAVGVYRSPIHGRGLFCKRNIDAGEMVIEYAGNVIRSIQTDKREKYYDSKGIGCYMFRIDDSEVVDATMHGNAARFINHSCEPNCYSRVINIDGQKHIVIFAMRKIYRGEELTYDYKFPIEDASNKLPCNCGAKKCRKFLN

[10] = biological target: Dual specificity protein kinase CLK1 (Homo sapiens, UniProt P49759); assay: Selectivity interaction (KinomeScan (DiscoverX)) EUB0000595a CLK1; settings: at 10 µM
[11] = biological target: MAP kinase-activated protein kinase 2 (Homo sapiens, UniProt P49137); settings: at 10 µM
[12] = biological target: T1, 5'-AMP-activated protein kinase catalytic subunit alpha-1; assay: Selectivity interaction (ProQinase) EUB0000171b PRKAA1
[13] = biological target: Calcium/calmodulin-dependent protein kinase type II subunit delta (Homo sapiens) (UniProt Q13557); assay: Selectivity interaction (KinomeScan (DiscoverX)) EUB0000092b CAMK2D; settings: at 10 µM
[14] = biological target: Serine/threonine-protein kinase PAK 1 (Homo sapiens) (UniProt Q13153); assay: Selectivity interaction (KinomeScan (DiscoverX)) EUB0000045b PAK1
Chain of Serine/threonine-protein kinase PAK 1 (Homo sapiens) (Q13153 whole entry, the tested form may be a part): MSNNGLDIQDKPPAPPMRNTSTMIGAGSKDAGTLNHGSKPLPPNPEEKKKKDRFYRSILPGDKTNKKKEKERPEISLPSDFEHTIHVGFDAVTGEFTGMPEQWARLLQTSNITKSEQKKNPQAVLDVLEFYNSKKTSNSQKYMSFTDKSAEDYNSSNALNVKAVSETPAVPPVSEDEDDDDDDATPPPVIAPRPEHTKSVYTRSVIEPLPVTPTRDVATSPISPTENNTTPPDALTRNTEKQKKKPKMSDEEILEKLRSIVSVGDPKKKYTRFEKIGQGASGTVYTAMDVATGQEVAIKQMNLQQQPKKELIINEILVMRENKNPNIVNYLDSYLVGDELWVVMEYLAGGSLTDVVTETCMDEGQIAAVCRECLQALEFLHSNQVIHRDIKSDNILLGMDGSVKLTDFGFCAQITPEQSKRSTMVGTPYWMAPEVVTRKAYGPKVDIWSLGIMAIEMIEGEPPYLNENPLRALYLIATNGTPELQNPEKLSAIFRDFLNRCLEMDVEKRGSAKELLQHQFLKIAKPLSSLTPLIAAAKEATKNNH

[15] = biological target: Phosphatidylinositol 4-phosphate 3-kinase C2 domain-containing subunit beta (Homo sapiens) (UniProt O00750); assay: Selectivity interaction (KinomeScan (DiscoverX)) EUB0000655a PIK3C2B; settings: at 10 µM
[16] = biological target: Leucine-rich repeat serine/threonine-protein kinase 2 (Homo sapiens, UniProt Q5S007); assay: (§1) Selectivity interaction (KinomeScan (DiscoverX)) EUB0000655a LRRK2; settings: at 10 µM
[17] = system: Leucine-rich repeat serine/threonine-protein kinase 2 (Homo sapiens), Q5S007 [G2019S]; assay: as §1; settings: at 10 µM
[18] = biological target: Interferon-induced, double-stranded RNA-activated protein kinase (Homo sapiens) (UniProt P19525); assay: Selectivity interaction (ActivX KiNativ screen (ex vivo kinase selectivity in human PBMCs)) EUB0001619a EIF2AK2; assay type: cell-based; settings: PBMC, at 1 µM
[19] = biological target: Receptor-interacting serine/threonine-protein kinase 3 (Homo sapiens) (UniProt Q9Y572); assay: Selectivity interaction (ActivX KiNativ screen (ex vivo kinase selectivity in human PBMCs)) EUB0001619a RIPK3; assay type: cell-based; settings: PBMC, at 1 µM
[20] = system: Phosphatidylinositol 4,5-bisphosphate 3-kinase catalytic subunit alpha isoform (Homo sapiens), P42336 [H1047L]; assay: (§2) Selectivity interaction (KinomeScan (DiscoverX)) EUB0000618a PIK3CA; settings: at 10 µM
[21] = system: Phosphatidylinositol 4,5-bisphosphate 3-kinase catalytic subunit alpha isoform (Homo sapiens), P42336 [Q546K]; assay: as §2; settings: at 10 µM
[22] = system: Phosphatidylinositol 4,5-bisphosphate 3-kinase catalytic subunit alpha isoform (Homo sapiens), P42336 [E545A]; assay: as §2; settings: at 10 µM
[23] = system: Phosphatidylinositol 4,5-bisphosphate 3-kinase catalytic subunit alpha isoform (Homo sapiens), P42336 [M1043I]; assay: as §2; settings: at 10 µM
[24] = system: Phosphatidylinositol 4,5-bisphosphate 3-kinase catalytic subunit alpha isoform (Homo sapiens), P42336 [H1047Y]; assay: as §2; settings: at 10 µM
[25] = system: Phosphatidylinositol 4,5-bisphosphate 3-kinase catalytic subunit alpha isoform (Homo sapiens), P42336 [C420R]; assay: as §2; settings: at 10 µM
[26] = system: Phosphatidylinositol 4,5-bisphosphate 3-kinase catalytic subunit alpha isoform (Homo sapiens), P42336 [E542K]; assay: as §2; settings: at 10 µM
[27] = system: Phosphatidylinositol 4,5-bisphosphate 3-kinase catalytic subunit alpha isoform (Homo sapiens), P42336 [E545K]; assay: as §2; settings: at 10 µM
[28] = biological target: Mitogen-activated protein kinase 1 (Homo sapiens, UniProt P28482); assay: Selectivity interaction (KinomeScan (DiscoverX)) EUB0000607a MAPK1; settings: at 10 µM
[29] = biological target: Mitogen-activated protein kinase kinase kinase kinase 5 (Homo sapiens) (UniProt Q9Y4K4); assay: Selectivity interaction (SelectScreen profiling (Invitrogen)) EUB0000607a MAP4K5; settings: at 2 µM
[30] = biological target: Tyrosine-protein kinase Fer (Homo sapiens) (UniProt P16591); assay: Selectivity interaction (KinomeScan (DiscoverX)) EUB0000666a FER; settings: at 10 µM

Structure (SMILES): Cc1cc([C@@H](C)Nc2ccccc2C(=O)O)c2nc(N3CCOCC3)cc(=O)n2c1 [AZD-6482]
- % of control [1]: 96%

- % of inhibition [2]: 7.8%
- % of inhibition (Focal adhesion kinase 1): -38.6%
- % of inhibition [3]: -8.7%
Structure (SMILES): CC[C@@H]1[C@H](F)C(=O)N[C@@H]1COc1nccc2cc(C(N)=O)c(OC)cc12 [ZIMLOVISERTIB]

- % activity [4]: > 90%
Structure (SMILES): CNCCN1CCC(c2cc(CN(C)C(=O)c3cccc(Oc4ccccc4)c3)ccn2)CC1

- dTM [5]: -1.91 K
Structure (SMILES): Cc1cc(CN)cc(C)c1-c1ncn(C)c1-c1cncn1C

- IC50 [6]: > 30 µM
Structure (SMILES): CCC(=O)N1CC[C@H](Nc2ncnc3c2CN(c2cnc(OC)c(C(F)(F)F)c2)CC3)C1 [LENIOLISIB]

- % of control [7]: -0.819%
Structure (SMILES): Cn1cc(-n2cnc3c(NCc4nc5cc(Cl)c(Cl)cc5[nH]4)nc(N4CCOCC4)nc32)cn1

- % of control [8]: 100%
Structure (SMILES): CCN(CC)CCCCNc1ncc2cc(-c3cc(OC)cc(OC)c3)c(NC(=O)NC(C)(C)C)nc2n1

Structure (SMILES): Cc1cc(C)cc([C@@H]2c3cc(C)ccc3NC(=O)CN2C(=O)c2ccc(Br)s2)c1
- % of activity ([9]; at 1 µM): 99.7%
- % of activity ([9]; at 10 µM): 103%

Structure (SMILES): COCC(=O)NC/C=C/c1ccc2ncnc(Nc3ccc(Oc4ccc(C)nc4)c(C)c3)c2c1 [CP-724714]
- % of control [10]: 90%
- % of control [11]: 100%

- % of control ([12]; at 1 µM): 100%
- % of control ([12]; at 5 µM): 93%
Structure (SMILES): C=CC(=O)Nc1cccc(C(=O)Nc2ccc(Nc3cc(-c4[nH]c(SC)nc4C)ccn3)cc2)c1

Structure (SMILES): CCC(=O)N1CCN(c2ccc(-n3c(=O)ccc4cnc5ccc(-c6cnc7ccccc7c6)cc5c43)cc2C(F)(F)F)CC1
- % of control [13]: 72%

Structure (SMILES): C=CC(=O)Nc1cc(-n2c(=O)ccc3cnc4ccc(-c5ccc(NS(C)(=O)=O)cc5)cc4c32)ccc1C
- % of control ([14]; at 1 µM): 86%
- % of control ([14]; at 10 µM): 62%

Structure (SMILES): CN(C)CCOc1ccc(-c2nc(-c3ccncc3)c(-c3ccc4c(c3)CC/C4=N\O)[nH]2)cc1
- % of control [15]: 64%
- % of control [16]: 79%
- % of control [17]: 76%

Structure (SMILES): N#Cc1cccc(-c2c[nH]c3ncnc(N4CCOCC4)c23)c1
- % of inhibition [18]: 12%
- % of inhibition [19]: 8%

Structure (SMILES): O[C@H]1CC[C@H](Nc2ncc3nc(Nc4c(F)cc(F)cc4F)n([C@H]4CCOC4)c3n2)CC1
- % of control [20]: 100%
- % of control [21]: 100%
- % of control [22]: 100%
- % of control [23]: 100%
- % of control [24]: 100%
- % of control [25]: 100%
- % of control [26]: 100%
- % of control [27]: 100%

Structure (SMILES): CNC(=O)Nc1ccc(-c2nc(N3CC4CCC(C3)O4)c3cnn(C4CCC5(CC4)OCCO5)c3n2)cc1
- % of control [28]: 87%
- % of inhibition [29]: 19%

Structure (SMILES): O=C(NOC[C@H](O)CO)c1ccc(F)c(F)c1Nc1ccc(I)cc1F
- % of control [30]: 100%
